Measured values taken from ChEMBL document CHEMBL4627363, “S1P1-selective agonist prodrug IMMH002 is phosphorylated in rats to form an S-configured enantiomer: Synthesis, verification, and biological activity of the in vivo active metabolite” (Bioorg Med Chem Lett, 2020).

Experiments:
[1] = molecular target: Sphingosine 1-phosphate receptor 3 (Homo sapiens, UniProt Q99500); experiment: Agonist activity at S1PR3 (unknown origin) by HTRF assay
[2] = species: Homo sapiens; experiment: Ratio of EC50 for S1PR3 (unknown origin) to EC50 for S1PR1 (unknown origin)
[3] = molecular target: Sphingosine 1-phosphate receptor 1 (Homo sapiens, UniProt P21453); experiment: Agonist activity at S1P1 (unknown origin) by HTRF assay
Chain of Sphingosine 1-phosphate receptor 1 (P21453 whole entry): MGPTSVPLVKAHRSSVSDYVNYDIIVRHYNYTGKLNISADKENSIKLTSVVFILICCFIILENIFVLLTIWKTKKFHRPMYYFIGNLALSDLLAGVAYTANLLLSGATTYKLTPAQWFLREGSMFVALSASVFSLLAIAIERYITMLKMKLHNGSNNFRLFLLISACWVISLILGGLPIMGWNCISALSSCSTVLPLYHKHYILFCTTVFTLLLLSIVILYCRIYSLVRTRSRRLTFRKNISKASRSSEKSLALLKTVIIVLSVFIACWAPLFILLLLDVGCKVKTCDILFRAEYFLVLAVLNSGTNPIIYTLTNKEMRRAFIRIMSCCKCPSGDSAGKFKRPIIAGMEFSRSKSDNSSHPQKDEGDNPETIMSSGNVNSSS

Chain of Sphingosine 1-phosphate receptor 3 (Q99500 whole entry): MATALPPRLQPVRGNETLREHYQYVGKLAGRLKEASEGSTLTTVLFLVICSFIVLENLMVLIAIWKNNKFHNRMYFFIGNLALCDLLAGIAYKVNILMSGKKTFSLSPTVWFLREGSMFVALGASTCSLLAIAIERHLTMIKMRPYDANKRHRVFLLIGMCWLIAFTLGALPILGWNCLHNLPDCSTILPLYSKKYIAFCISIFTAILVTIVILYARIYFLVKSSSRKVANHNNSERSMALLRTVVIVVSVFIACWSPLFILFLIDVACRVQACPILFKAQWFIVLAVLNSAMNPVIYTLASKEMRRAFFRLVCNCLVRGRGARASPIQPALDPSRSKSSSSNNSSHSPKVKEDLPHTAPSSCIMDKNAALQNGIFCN

| SMILES | EC50 [1] | Ratio EC50 [2] | EC50 [3] |
| --- | --- | --- | --- |
| CCc1nc(-c2ccc(-c3ccc(CCC(N)(CO)COP(=O)(O)O)cc3)cc2)co1 (racemic) | 523 nM | 105 | 5 nM |
| CCc1nc(-c2ccc(-c3ccc(CCC(N)(CO)CO)cc3)cc2)co1 | > 10000 nM |  | 332 nM |
| CCc1nc(-c2ccc(-c3ccc(CC[C@@](N)(CO)COP(=O)(O)O)cc3)cc2)co1 | 736 nM | 1.6 | 469 nM |
| CCc1nc(-c2ccc(-c3ccc(CC[C@](N)(CO)COP(=O)(O)O)cc3)cc2)co1 | 380 nM | 173 | 2.2 nM |
